Reference: patent US20250241109A1, “Electron Transporting Self-Assembling Monolayer Compound for Use in Optoelectronic and/or Photoelectrochemical Devices and Manufacture Thereof” (Kaunas University of Technology, priority 2024, published 2025)
Where two headings read alike, the source gives them in different places.

Tests used:
Assay type in all cases: physicochemical
[1] = Solubility in organic solvents
[2] = Cyclic voltammetry and optical band gap: energy levels in DMF and DCM solution; details: for EHOMO: EHOMO=ELUMO+Eg opt; for ELUMO: calculated from E vs Fc/Fc^+ with conversion factors; for λ: edge of electronic absorption spectrum in solution; for E vs Fc/Fc^+: glassy carbon electrode, 0.1 M tetrabutylammonium hexafluorophosphate, calibrated with ferrocene; for Eg^opt-sol: optical band gap, Eg opt=1240/λ
Procedure: CV measurements were carried out by a three-electrode assembly cell from Bio-Logic SP-150. The measurements were carried out at a glassy carbon electrode in DMF and DCM solutions containing 0.1 M tetrabutylammonium hexafluorophosphate as an electrolyte, Pt as the counter electrode and as the reference electrode. Each measurement was calibrated with ferrocene (Fc) and potentials calculated to Fc^+/Fc. Conversion factors: ferrocene in DCM vs SCE 0.46, DMF vs SCE 0.45, SCE vs SHE: 0.244, SHE vs vacuum: 4.43 (N. G. Connelly, W. E. Geiger, Chemical Reviews 1996, 96, 877; V. V. Pavlishchuk, A. W. Addison, Inorganica Chimica Acta 2000, 298, 97). The half-wave potential E1/2vs Fc was obtained as an average value between maxima of cathodic and anodic potentials: E1/2 vs Fc=1/2([…]). The optical band gaps Eg opt=1240/λ was estimated from the edges of electronic absorption spectra in DCM and DMF solutions. ELUMO was calculated from the equation ELUMO=(E vs Fc/Fc^++(solvent vs SCE)+0.244+4.43. EHOMO calculated from the equation EHOMO=ELUMO[…].

[3] = Thermogravimetric analysis (TGA); details: scan rate 10 K min^−1, nitrogen atmosphere
Procedure: TGA was performed on a Q50 thermogravimetric analyzer (TA Instruments) at a scan rate of 10 K min^−1 in the nitrogen atmosphere.

[4] = UV/vis absorption and transmittance spectra
From the text: In the n-i-p structure PSC light first posses through the ETL, thus it is important to minimize parasitic absorption of this layer.

[5] = Water contact angle of ITO/SAM surface; details: coated onto ITO, washed to remove unbound molecules
From the text: It is noted that all the samples were washed with respective solvents to remove unbounded SAM molecules from the ITO substrate. […] The higher hydrophobicity of ITO/SAM substrate will affect the crystallization and morphology of perovskite film.^[21,22] The more hydrophobic surface (less wetting) of ITO/NDI-SAM surface can suppress the dragging force of perovskite inks, resulting in larger grain-size perovskite crystals, as indicated from top-view scanning electron microscopy (SEM) images in FIG. 6a,b.^[21,22] In addition, the tertbutyl groups of V1264 on the upper side can interact well with the perovskite layer, resulting in less pinholes or voids formed at ITO/V1264/perovskite interface, see FIG. 7.

[6] = Contact potential difference (CPD) surface mapping on ITO
From the text: The surface mapping of contact potential difference (CPD) values of V1264 on ITO confirmed uniformity of SAM coverage. The rather homogenous pattern was proportional to the narrow work function (WF) fluctuation in a specific area (˜4.45 eV), overall indicating a good V1264 coverage on ITO.

[7] = CHCl3, organic solvent or mixture, read-out: Solubility in CHCl3
[8] = DCM, organic solvent or mixture, read-out: Solubility in DCM
[9] = THF, organic solvent or mixture, read-out: Solubility in THF
[10] = organic solvent or mixture, methanol, sonicated, read-out: Solubility in Methanol

solubility ([1]; organic solvent or mixture, THF, sonicated, read-out: Solubility in THF) [µg/mL]	solubility ([1]; organic solvent or mixture, isopropanol, sonicated, read-out: Solubility in Isopropanol) [µg/mL]	solubility [1, 10] [µg/mL]	SMILES	solubility [1, 7] [µg/mL]	solubility [1, 8] [µg/mL]	solubility [1, 9] [µg/mL]	solubility ([1]; chlorobenzene, organic solvent or mixture, read-out: Solubility in Chlorobenzene) [µg/mL]	solubility ([1]; toluene, organic solvent or mixture, read-out: Solubility in Toluene) [µg/mL]	EHOMO [2] [eV]	ELUMO [2] [eV]	Voltammogram behaviour in solution ([2]; during the scans)	λ [2] [nm]	E vs Fc/Fc^+ [2] [V]	Eg^opt-sol [2] [eV]	95% weight loss temperature [3] [°C]	Absorption in the visible region ([4]; UV/vis, 10^−4 M anhydrous dichloromethane)	Optical losses (UV-Vis transmittance) of SAM on ITO surface ([4]; compared to bare ITO and ITO/SnO2 films)	Water contact angle (surface hydrophobicity) [5]	Work function (WF) [6] [eV]
≤ 500	≤ 500	≤ 700	O=C1c2cc(Br)c3c4c(cc(Br)c(c24)C(=O)N1CP(=O)(O)O)C(=O)N(CP(=O)(O)O)C3=O [Compound V1486]	–	–	–	–	–	−6.76	−3.86	–	426	−1.26	2.90	–	–	–	–	–
–	–	≤ 500	O=C1c2ccc3c4c(ccc(c24)C(=O)N1CP(=O)(O)O)C(=O)N(CP(=O)(O)O)C3=O [Compound V1612, N, N′-bi(methyl)-1,4,5,8-naphthalene tetracarboxylic diimide diphosphonic acid]	–	–	–	–	–	−6.97	−3.9	–	403	−1.17	3.07	–	–	–	–	–

More lines, now with the values behind:

SMILES	solubility ([1]; organic solvent or mixture, THF, sonicated, read-out: Solubility in THF) [µg/mL]	solubility ([1]; organic solvent or mixture, isopropanol, sonicated, read-out: Solubility in Isopropanol) [µg/mL]	solubility [1, 10] [µg/mL]	solubility [1, 7] [µg/mL]	solubility [1, 8] [µg/mL]	solubility [1, 9] [µg/mL]	solubility ([1]; chlorobenzene, organic solvent or mixture, read-out: Solubility in Chlorobenzene) [µg/mL]	solubility ([1]; toluene, organic solvent or mixture, read-out: Solubility in Toluene) [µg/mL]	EHOMO [2] [eV]	ELUMO [2] [eV]	Voltammogram behaviour in solution ([2]; during the scans)	λ [2] [nm]	E vs Fc/Fc^+ [2] [V]	Eg^opt-sol [2] [eV]	95% weight loss temperature [3] [°C]	Absorption in the visible region ([4]; UV/vis, 10^−4 M anhydrous dichloromethane)	Optical losses (UV-Vis transmittance) of SAM on ITO surface ([4]; compared to bare ITO and ITO/SnO2 films)	Water contact angle (surface hydrophobicity) [5]	Work function (WF) [6] [eV]
CC(C)(C)c1ccc(C(C)(C)C)c(N2C(=O)c3ccc4c5c(ccc(c35)C2=O)C(=O)N(CP(=O)(O)O)C4=O)c1 [Compound V1264, N-(2,5-di-tert-butyl-phenyl)-N′-(methyl)-1,4,5,8-naphthalene tetracarboxylic diimide phosphonic acid]	–	–	–	≤ 7500	≤ 15000	≤ 6500	≤ 13000	≤ 800	−6.97	−3.81	reversible reduction waves	392	−1.34	3.16	356	no apparent absorption in the visible region	neglectable optical losses	around 78.4 °	~4.45
CC(C)(C)c1ccc(C(C)(C)C)c(N2C(=O)c3ccc4c5c(ccc(c35)C2=O)C(=O)N(CCP(=O)(O)O)C4=O)c1 [Compound V1624, N-(2,5-di-tert-butyl-phenyl)-N′-(ethyl)-1,4,5,8-naphthalene tetracarboxylic diimide phosphonic acid]	–	–	–	≤ 5000	≤ 7000	≤ 1000	–	–	−7.11	−3.96	–	393	−1.16	3.15	–	–	–	–	–
O=C1c2ccc3c4c(ccc(c24)C(=O)N1CCP(=O)(O)O)C(=O)N(CCP(=O)(O)O)C3=O [Compound V1625, N, N′-bis(ethyl)-1,4,5,8-naphthalene tetracarboxylic diimide diphosphonic acid]	–	–	≤ 500	–	–	–	–	–	−6.91	−3.79	–	397	−1.32	3.12	–	–	–	–	–
CC(C)(C)c1ccc(C(C)(C)C)c(N2C(=O)c3ccc4c5c(ccc(c35)C2=O)C(=O)N(c2ccc(P(=O)(O)O)cc2)C4=O)c1 [Compound V1635]	–	–	–	≤ 15000	≤ 10000	–	–	–	−6.98	−3.84	–	394	−1.28	3.14	–	–	–	–	–
